The source of these data is US20130190223A1, “NONIMMUNOSUPPRESSIVE CYCLOSPORINE ANALOGUE MOLECULES” (ISOTECHNIKA PHARMA INC., priority 2008, published 2013).

The target in one data set is T1, CyP-D (Rattus norvegicus, UniProt P29117).
T1 construct: Mitochondria were isolated from fresh rat liver; from tissue; host or cells: rat liver mitochondria
It is filed as biochemical. Particulars: mitochondria isolated from rat liver, 190 μM calcium, swelling as decline in A540. The text has this: A mitochondria swelling assay was used to measure the efficacy of NICAMs in blocking CyP-D and mitochondrial permeability transition. Under certain pathological conditions, mitochondria lose the ability to regulate calcium levels, and excessive calcium accumulation in the mitochondrial matrix results in the opening of large pores in the inner mitochondrial membrane. Nonselective conductance of ions and molecules up to 1.5 kilodaltons through the pore, a process called mitochondrial permeability transition, leads to swelling of mitochondria and other events which culminate in cell death. […] In general, mitochondria isolated from rat liver were exposed to calcium to induce MPTP opening in the absence or presence of test compounds, and calcium-induced swelling was measured as a reduction in light absorbance at 540 nm.
Mitochondria were isolated from fresh rat liver. Ice-cold or 4° C. conditions were used throughout all steps of the isolation. The liver was rinsed thoroughly and chopped in a small volume of isolation buffer (IB; 10 mM Hepes, 70 mM sucrose, 210 mM mannitol, 0.5 mM EDTA). Aliquots of the minced liver were homogenized in IB using a Teflon-glass Potter-Elvehjem tissue grinder and passed through a cell screen filter. The filtered homogenate was centrifuged at 600 g for 10 min, then the resulting supernatant centrifuged at 7000 g for 10 min. The supernatant was discarded, and the pellet resuspended in wash buffer (10 mM Hepes, 70 mM sucrose, 210 mM mannitol) and centrifuged a final time at 7000 g for 10 min. The supernatant was discarded, and the mitochondria-containing pellet suspended and stored on ice in 2 mL of respiration buffer (RB; 5 mM Hepes, 70 mM sucrose, 210 mM mannitol, 10 mM sodium succinate, 1 mM sodium phosphate dibasic).
Test compound solutions were prepared from 10 mg/ml stocks (dimethyl sulfoxide vehicle) first by diluting the test compound 1000× into respiration buffer #2 (RB2; 5 mM Hepes, 70 mM sucrose, 210 mM mannitol, 10 mM sodium succinate, 1 mM sodium phosphate dibasic, 1% fetal bovine serum, 2 μM rotenone), then by 3×-serial dilutions in RB2 to achieve test compound concentrations of 10000, 3333, 1111, 370, 123, 41, and 14 ng/mL. Polystyrene tubes and plates were used for all preparations.
Swelling assays were completed in a 96-well flat-bottom polystyrene plates. In each well a 10-μL aliquot of mitochondria suspension, equivalent to 100-200 μg total protein, was combined with 90 μL of test compound, incubated for 10 min, then the baseline absorbance measured on a plate reader (540 nm wavelength; A540). Swelling was induced by adding 5 μL of 4 mM calcium chloride to achieve a final calcium concentration of 190 μM. Mitochondria swelling was indicated by a decline in A540. […] Duplicate samples were assayed for each test compound concentration.
Means and ranges of duplicate samples are shown.

For the next data set, the system named is human lymphocytes. Briefly: Immunosuppressive potency: inhibition of proliferation of anti-CD3 stimulated human lymphocytes (CFSE, flow cytometry). To be noted: relative potency: IC50 for inhibition of cell division normalized to CsA, 3 days incubation. It is filed as cell-based. The protocol: The immunosuppressive potency of test compounds was assessed by measuring their ability to inhibit the proliferation of human lymphocytes in cell culture. Lymphocytes were isolated from blood of normal human volunteers by Ficoll-gradient centrifugation and stained with 2 μg/ml carboxyfluoroscein diacetate succinimydyl ester (CFSE), a fluorescent cell division tracer molecule. Cells were stimulated through the CD3/T-cell receptor by seeding cells at 300,000/well into 96-well flat-bottom, high-binding plates coated with 1 μg/ml UCHT-1 anti-human CD3 antibody. Test compounds were prepared first as 10 mg/ml stock solutions in dimethylsulfoxide (DMSO). Test solutions were prepared by 500-fold dilution of the DMSO stock solutions, then 3-fold serial dilutions in cell culture medium (RPMI+5% FBS+penicillin-steptomycin) for a total of 7 concentrations per compound. Test solutions were added in equal volume to the culture wells containing cells to achieve final concentrations after dilution of 13.7 ng/ml-10,000 ng/ml. […] Following 3 days incubation cells were stained with CD95-APC (lymphocyte activation marker) and analyzed by flow cytometry with a Becton Dickinson FACSCalibur. Percentage cell division was assessed in forward/side-scatter-gated lymphocytes by measuring the proportion of cells that underwent one or more cell divisions as determined by serial halving of CFSE intensity. The nondivided parent population was determined from samples maintained in culture without anti-CD3 stimulation. IC50 values for inhibition of cell division were determined by nonlinear regression analysis. […]
(In flow cytometry, cells or beads pass a laser one at a time.)

T1 sequence (P29117 30-206): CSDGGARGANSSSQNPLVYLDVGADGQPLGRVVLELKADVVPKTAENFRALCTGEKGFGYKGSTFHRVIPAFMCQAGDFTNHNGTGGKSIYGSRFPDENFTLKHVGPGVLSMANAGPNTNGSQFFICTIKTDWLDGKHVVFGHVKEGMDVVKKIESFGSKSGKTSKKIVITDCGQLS

Consider `CCCC=CCC(C)C(O)C1C(=O)NC(CC)C(=O)N(C)CC(=O)N(C)C(CC(C)C)C(=O)NC(C(C)C)C(=O)N(C)C(CC(C)C)C(=O)NC(C)C(=O)NC(C)C(=O)N(C)C(CC(C)C)C(=O)N(C)C(CC(C)C)C(=O)N(C)C(C(C)C)C(=O)N1C` (stereo not drawn) [Compound 404-26], for which the “CYP-D Inhibition (% Potency Vs CsA)” value on CyP-D came out at 58.4%.
Take `CCCCCCCC=CCC(C)C(O)C1C(=O)NC(CC)C(=O)N(C)CC(=O)N(C)C(CC(C)C)C(=O)NC(C(C)C)C(=O)N(C)C(CC(C)C)C(=O)NC(C)C(=O)NC(C)C(=O)N(C)C(CC(C)C)C(=O)N(C)C(CC(C)C)C(=O)N(C)C(C(C)C)C(=O)N1C` (stereo not drawn) [Compound 404-44]: the “CYP-D Inhibition (% Potency Vs CsA)” value at CyP-D is 1.2%. In addition, in the data set with human lymphocytes, the “Immunosuppression (% Relative to CsA)” value was found to be 1%.
Turning to `CCC1NC(=O)C(C(O)C(C)CCCCC(=O)N(CC)CC)N(C)C(=O)C(C(C)C)N(C)C(=O)C(CC(C)C)N(C)C(=O)C(CC(C)C)N(C)C(=O)C(C)NC(=O)C(C)NC(=O)C(CC(C)C)N(C)C(=O)C(C(C)C)NC(=O)C(CC(C)C)N(C)C(=O)CN(C)C1=O` (stereo not drawn) [Compound 404-85], at CyP-D, the “CYP-D Inhibition (% Potency Vs CsA)” value came to 128.7%. In addition, the “Immunosuppression (% Relative to CsA)” value in the data set on human lymphocytes is given as 2%.
For `CCC1NC(=O)C(C(O)C(C)CCCC(C)O)N(C)C(=O)C(C(C)C)N(C)C(=O)C(CC(C)C)N(C)C(=O)C(CC(C)C)N(C)C(=O)C(C)NC(=O)C(C)NC(=O)C(CC(C)C)N(C)C(=O)C(C(C)C)NC(=O)C(CC(C)C)N(C)C(=O)CN(C)C1=O` (stereo not drawn) [Compound 404-98] the same measures were 162.7% and 3%.
Taken in the same sequence, the figures for `CCC1NC(=O)C(C(O)C(C)CC(O)CO)N(C)C(=O)C(C(C)C)N(C)C(=O)C(CC(C)C)N(C)C(=O)C(CC(C)C)N(C)C(=O)C(C)NC(=O)C(C)NC(=O)C(CC(C)C)N(C)C(=O)C(C(C)C)NC(=O)C(CC(C)C)N(C)C(=O)CN(C)C1=O` (stereo not drawn) [Compound 404-126] were 24.6% and below 1%.
In the case of `CCC1NC(=O)C(C(O)C(C)CCCCC(N)=O)N(C)C(=O)C(C(C)C)N(C)C(=O)C(CC(C)C)N(C)C(=O)C(CC(C)C)N(C)C(=O)C(C)NC(=O)C(C)NC(=O)C(CC(C)C)N(C)C(=O)C(C(C)C)NC(=O)C(CC(C)C)N(C)C(=O)CN(C)C1=O` (stereo not drawn) [Compound 404-130], on CyP-D, the “CYP-D Inhibition (% Potency Vs CsA)” value is on record as 114.7%. In the data set with human lymphocytes, the “Immunosuppression (% Relative to CsA)” value is below 1%.
Taken in the same sequence, the figures for `CCC1NC(=O)C(C(O)C(C)CCCCC(=O)N(C)C)N(C)C(=O)C(C(C)C)N(C)C(=O)C(CC(C)C)N(C)C(=O)C(CC(C)C)N(C)C(=O)C(C)NC(=O)C(C)NC(=O)C(CC(C)C)N(C)C(=O)C(C(C)C)NC(=O)C(CC(C)C)N(C)C(=O)CN(C)C1=O` (stereo not drawn) [Compound 404-132] were 122.0% and below 1%.
Turning to `CCC1NC(=O)C(C(O)C(C)CC=CCCCCC(=O)N(C)C)N(C)C(=O)C(C(C)C)N(C)C(=O)C(CC(C)C)N(C)C(=O)C(CC(C)C)N(C)C(=O)C(C)NC(=O)C(C)NC(=O)C(CC(C)C)N(C)C(=O)C(C(C)C)NC(=O)C(CC(C)C)N(C)C(=O)CN(C)C1=O` (stereo not drawn) [Compound 404-154], on CyP-D, the “CYP-D Inhibition (% Potency Vs CsA)” value was determined as 119.4%. For the same compound, in the data set on human lymphocytes, the “Immunosuppression (% Relative to CsA)” value turned out to be 2%.
Regarding `CCC1NC(=O)C(C(O)C(C)CC=CCCCC(=O)N(C)C)N(C)C(=O)C(C(C)C)N(C)C(=O)C(CC(C)C)N(C)C(=O)C(CC(C)C)N(C)C(=O)C(C)NC(=O)C(C)NC(=O)C(CC(C)C)N(C)C(=O)C(C(C)C)NC(=O)C(CC(C)C)N(C)C(=O)CN(C)C1=O` (stereo not drawn) [Compound 404-156], the “CYP-D Inhibition (% Potency Vs CsA)” value at CyP-D is reported as 82.2%. The “Immunosuppression (% Relative to CsA)” value in the data set with human lymphocytes is 1%.
`CCC1NC(=O)C(C(O)C(C)CC=CCCC(=O)N(C)C)N(C)C(=O)C(C(C)C)N(C)C(=O)C(CC(C)C)N(C)C(=O)C(CC(C)C)N(C)C(=O)C(C)NC(=O)C(C)NC(=O)C(CC(C)C)N(C)C(=O)C(C(C)C)NC(=O)C(CC(C)C)N(C)C(=O)CN(C)C1=O` (stereo not drawn) [Compound 404-157]: the “CYP-D Inhibition (% Potency Vs CsA)” value at CyP-D was found to be 142.3%. For the same compound, in the data set with human lymphocytes, the “Immunosuppression (% Relative to CsA)” value is reported as below 1%.
As to `CCC1NC(=O)C(C(O)C(C)CC=CCCCCC(=O)N2CCOCC2)N(C)C(=O)C(C(C)C)N(C)C(=O)C(CC(C)C)N(C)C(=O)C(CC(C)C)N(C)C(=O)C(C)NC(=O)C(C)NC(=O)C(CC(C)C)N(C)C(=O)C(C(C)C)NC(=O)C(CC(C)C)N(C)C(=O)CN(C)C1=O` (stereo not drawn) [Compound 404-162], the “CYP-D Inhibition (% Potency Vs CsA)” value on CyP-D is reported as 91.1%. Further, in the data set on human lymphocytes, the “Immunosuppression (% Relative to CsA)” value is given as below 1%.
Consider `CCC1NC(=O)C(C(O)C(C)CC=CCCCCC(N)=O)N(C)C(=O)C(C(C)C)N(C)C(=O)C(CC(C)C)N(C)C(=O)C(CC(C)C)N(C)C(=O)C(C)NC(=O)C(C)NC(=O)C(CC(C)C)N(C)C(=O)C(C(C)C)NC(=O)C(CC(C)C)N(C)C(=O)CN(C)C1=O` (stereo not drawn) [Compound 404-164], for which the “CYP-D Inhibition (% Potency Vs CsA)” value on CyP-D was 98.9%.
As to `CCCNC(=O)CCC=CCC(C)C(O)C1C(=O)NC(CC)C(=O)N(C)CC(=O)N(C)C(CC(C)C)C(=O)NC(C(C)C)C(=O)N(C)C(CC(C)C)C(=O)NC(C)C(=O)NC(C)C(=O)N(C)C(CC(C)C)C(=O)N(C)C(CC(C)C)C(=O)N(C)C(C(C)C)C(=O)N1C` (stereo not drawn) [Compound 404-178], on CyP-D, the “CYP-D Inhibition (% Potency Vs CsA)” value is reported as 71.3%. In the data set on human lymphocytes, the “Immunosuppression (% Relative to CsA)” value is recorded as below 1%.
Taken in the same sequence, the figures for `CCC1NC(=O)C(C(O)C(C)CC=CCCC#N)N(C)C(=O)C(C(C)C)N(C)C(=O)C(CC(C)C)N(C)C(=O)C(CC(C)C)N(C)C(=O)C(C)NC(=O)C(C)NC(=O)C(CC(C)C)N(C)C(=O)C(C(C)C)NC(=O)C(CC(C)C)N(C)C(=O)CN(C)C1=O` (stereo not drawn) [Compound 404-194] were 123.2% and 2%.
On to `CCC(O)CCCC(C)C(O)C1C(=O)NC(CC)C(=O)N(C)CC(=O)N(C)C(CC(C)C)C(=O)NC(C(C)C)C(=O)N(C)C(CC(C)C)C(=O)NC(C)C(=O)NC(C)C(=O)N(C)C(CC(C)C)C(=O)N(C)C(CC(C)C)C(=O)N(C)C(C(C)C)C(=O)N1C` (stereo not drawn) [Compound 404-195], for which the “CYP-D Inhibition (% Potency Vs CsA)” value on CyP-D was found to be 143.1%. Further, the “Immunosuppression (% Relative to CsA)” value with human lymphocytes is reported as 2%.
As for `CCC1NC(=O)C(C(O)C(C)CCCO)N(C)C(=O)C(C(C)C)N(C)C(=O)C(CC(C)C)N(C)C(=O)C(CC(C)C)N(C)C(=O)C(C)NC(=O)C(C)NC(=O)C(CC(C)C)N(C)C(=O)C(C(C)C)NC(=O)C(CC(C)C)N(C)C(=O)CN(C)C1=O` (stereo not drawn) [Compound 420-28], the “CYP-D Inhibition (% Potency Vs CsA)” value on CyP-D is 78.0%. In the data set on human lymphocytes, the “Immunosuppression (% Relative to CsA)” value was below 1%.
For `C=CCC(O)CCCC(C)C(O)C1C(=O)NC(CC)C(=O)N(C)CC(=O)N(C)C(CC(C)C)C(=O)NC(C(C)C)C(=O)N(C)C(CC(C)C)C(=O)NC(C)C(=O)NC(C)C(=O)N(C)C(CC(C)C)C(=O)N(C)C(CC(C)C)C(=O)N(C)C(C(C)C)C(=O)N1C` (stereo not drawn) [Compound 420-49-1] the same measures were 143.6% and 3%.
As for `CCC1NC(=O)C(C(O)C(C)CCCCCCCCCNC(=O)OC(C)(C)C)N(C)C(=O)C(C(C)C)N(C)C(=O)C(CC(C)C)N(C)C(=O)C(CC(C)C)N(C)C(=O)C(C)NC(=O)C(C)NC(=O)C(CC(C)C)N(C)C(=O)C(C(C)C)NC(=O)C(CC(C)C)N(C)C(=O)CN(C)C1=O` (stereo not drawn) [Compound 420-125], the “CYP-D Inhibition (% Potency Vs CsA)” value on CyP-D was found to be 42.4%.
